Measurements from patent US20260272983A1, “METHODS AND COMPOSITIONS FOR TREATING AUTOIMMUNE DISEASES” (priority 2023, published 2026).

Test system: subject having an autoimmune disease
Format: in vivo, human
Conditions: IV cyclophosphamide regimen of TABLE 1, no fludarabine, before CAR T infusion
From the text: T cells are obtained from a subject having an autoimmune disease (for example, an autoimmune disease selected from (SLE), lupus nephritis, SLE with anti-dsDNA antibodies, pemphigus vulgaris (PV), mucosal PV, mucocutaneous PV, myasthenia gravis (MG), MuSK-associated MG, AChR MG, myositis, membranous nephropathy, anti-synthetase syndrome, dermatomyositis, immune mediated necrotizing myopathy, multiple sclerosis, neuromyelitis optica, chronic inflammatory demyelinating polyneuropathy, anti-NMDA Receptor encephalitis, Lambert-Eaton syndrome, pemphigus foliaceus, epidermolysis bullosa acquisita, bullous pemphigoid, Goodpasture's syndrome, rheumatoid arthritis, systemic sclerosis, anti-neutrophil cytoplasmic antibody (ANCA)-associated vasculitis, immune thrombocytopenic purpura, antiphospholipid syndrome, autoimmune hemolytic anemia, type 1 diabetes, Grave's disease, Hashimoto's disease, and Sjogren's syndrome). […]
A dose of CAR T cells (e.g., from 1×10^6 to 1×10^7 cells/kg bodyweight) is intravenously administered to the subject. The subject is monitored post-infusion for B-cell levels, white blood cell count, CAR T cell levels, and for autoimmune disease markers (e.g., autoantibody levels).

O=P1(N(CCCl)CCCl)NCCCO1 (stereo not shown) [cyclophosphamide]
effectiveness of the cyclophosphamide preconditioning regimen used prior to CD19-CAR T cell therapy in treating the autoimmune disease: effective in the treatment of the autoimmune disease
